Experimental findings from patent US20080108710A1, “High-Potency Sweetener Composition With Preservative and Compositions Sweetened Therewith” (THE COCA-COLA COMPANY, priority 2006, published 2008) are described below.

Data set [1] is described as follows: Rate of dissolution of rebaudioside A polymorph and amorphous forms in H2O. It is filed as physicochemical. The text has this:
The purification of rebaudioside A by crystallization as described above results in the formation of at least three different polymorphs: Form 1: a rebaudioside A hydrate; Form 2: an anhydrous rebaudioside A; and Form 3: a rebaudioside A solvate. In addition to the at least three polymorph forms of rebaudioside A, the purification of rebaudioside A may result in the formation of an amorphous form of rebaudioside A, Form 4. The aqueous organic solution and temperature of the purification process influence the resulting polymorph and amorphous forms in the substantially pure rebaudioside A composition. FIGS. 1-5 are exemplary powder x-ray diffraction (XRPD) scans of the polymorph and amorphous forms of rebaudioside A: Form 1 (hydrate), Form 2 (anhydrate), Form 3A (methanol solvate), Form 3B (ethanol solvate), and Form 4 (amorphous), respectively.

The subject of data set [2] is panel of experts in the sensory evaluation of foods and beverages. Put plainly: Sensory evaluation of sweetness linger and taste characteristics. More on the design: key: 0: no sweetness linger; 1: very slight sweetness linger; 2: slight sweetness linger; 3: moderate sweetness linger; 4: moderately high sweetness linger; 5: high sweetness linger. Type of data set: in vivo. As for the experimental part: Sensory evaluation of the samples prepared in Example Set G was carried out under the following protocol, similar to that described hereinabove. In this test protocol, none of the samples were swallowed. All samples were expectorated and the mouth was rinsed with water after the tasting. Immediately upon sensing maximal sweetness, the sample was expectorated, the mouth was rinsed with water and the rate of sweetness decay (“Sweetness Linger”) was measured, where attention was focused on the sweetness 3-4 min after the water rinse. After sample tasting was complete, a salty oyster cracker was chewed followed by a water rinse, and at least 5 minutes followed before tasting the next sample. […]
Sweet taste improving compositions were combined with a REBA solution to determine their effect on sweetness linger. Screening of the initial sample, or further dilutions, allowed identification of concentrations which were just above-threshold, herein defined as “near-threshold concentrations.” The near-threshold additive concentrations, a 6- to 100-fold higher higher additive concentration (depending on the off-taste intensity), and a mid-level additive concentration (halfway between the near-threshold and higher additive concentration) were evaluated to determine the effect on sweetness linger of a REBA solution. […]

As to rebaudioside A [Form 1], in data set [1], the “Rate of dissolution in H2O at 25° C.” value is recorded as “Very low (<0.2%/60 %/60 minutes”.

For the substance rebaudioside A, the “Sweetness Linger” value in data set [2] (Example Set G: citric acid/potassium citrate composition equivalent to diet lemon-lime beverage, scale 0-5, sweetness 3-4 min after water rinse) is 5; in data set [2] (Example Set H: carbon-treated water with phosphoric acid (75%) to pH 2.4-2.5, scale 0-5) it was 5.

In the case of rebaudioside A [Form 2], the “Rate of dissolution in H2O at 25° C.” value in data set [1] is “Intermediate (<30%/5 %/5 minutes”.
